Assay results taken from US20120128860A1, “PREPARATION OF VEGETABLE MATERIAL AND FOOD PRODUCTS” (priority 2009, published 2012).

Tested on: tobacco plants (Nicotiana tabacum)
Test: Chlorophyll a and b content of tobacco leaves after pre-harvest kinetin treatment, soaking and storage
Format: in vivo
Design: reduction after 27 d (chlorophyll): concentration or dose not given beside the values
Conditions: cytokinin 5 days pre-harvest; for reduction after 27 d (chlorophyll): 27 d storage; for chlorophyll level after 0 d storage / chlorophyll level after 3 d storage / chlorophyll level after 7 d storage / chlorophyll level after 10 d storage / chlorophyll level after 14 d storage / chlorophyll level after 20 d storage / chlorophyll level after 27 d storage: stored 4° C. dark
Protocol: Determination of chlorophyll contents of fresh leaves using a spectrophotometer. Procedure: • 1. Homogenisation of plant tissue (100 mg) in liquid nitrogen. For each data point at least three biological samples were harvested. • 2. Addition of 400 microliter acetone in 10 micromolar KOH and subsequent vortexing • 3. Centrifugation of the homogenate at 13,000 rpm for 10 min to remove cell debris and proteins • 4. Transfer of the supernatant into new test tubes • 5. Addition 200 microliter of extraction mixture to the pellet as mentioned above and vortexing • 6. Centrifugation of the homogenate at 13,000 rpm for 10 min • 7. Mix of the supernatant with the supernatant from step 4 • 8. Repeat of steps 5-7 three times until the pellet is completely white • 9. Dilution of the sample 1:10 in acetone and measurement of absorption at 664, 646/7 and 750 nm in a spectrophotometer. All absorbance measurements at the indicated wavelength need subtraction of the absorbance at 750 nm. Calculation of the chlorophyll contents by comparing with calibration curves.
Determination of chlorophyll contents of leaves by HPLC. Procedure: • 1. Homogenisation of 100 mg plant material in liquid nitrogen in a test tube • 2. Addition of 500 microliter acetone with 10 micromolar KOH and vortexing. • 3. Centrifugation of the suspension for 10 min at 4° C. at 13.000 rpm. • 4. The supernatant is transferred into new test tube • 5. Addition of 500 microliter acetone to the pellet and resuspension of the pellet • 6. Centrifugation for 10 min at 4° C. at 13.000 rpm. • 7. The supernatant is combined with the supernatant from step 4 • 8. The samples are vortexed and centrifuged for 10 min at 4° C. at 13,000 rpm. • 9. A 40 microliter aliquot of the extract is mixed with 160 microliter water • 10. The sample is transferred into a HPLC vial • 11. An aliquot of 10-100 microliter is injected into the HPLC column (RP C18 column) • 12. Running buffers: Acetonitril/H2O/triethylamine (1798:200:2) and ethyl acetate
Objective of the experiments: to combine effects of pre-harvest treatment of tobacco plants with the growth hormone kinetin and subsequently soaking with a buffer solution on the stability of chlorophyll after heat treatment followed by different storage periods.
A 1 mM kinetin solution in water was made by dissolving kinetin dropwise with 10 microliter 1M NaOH, then the solution was neutralized to pH 7.0 with HCl. This 1 mM kinetin aqueous solution was injected into the leaves of growing tobacco plants (Nicotiana tabacum). The application of cytokinin was repeated once a day for five successive days. At day 7, tobacco leaves were harvested and stored in aluminium foils. Control plants were treated with the same solution at pH 7.0 (in water), but without kinetin.
After harvest, leaves of the harvested plants (both treated with cytokinin, as well as the control plants) were separated in batches, which were subsequently treated at different temperatures in one the following ways: • 1. leaves were soaked in tap water during 1 minute at room temperature; • 2. leaves were soaked in a buffer solution of pH 7.2 during 1 minute at room temperature; • 3. leaves were soaked in tap water during 1 minute at 70° C.; • 4. leaves were soaked in a buffer solution of pH 7.2 during 1 minute at 70° C.; • 5. leaves were soaked in tap water during 1 minute at 90° C.; • 6. leaves were soaked in a buffer solution of pH 7.2 during 1 minute at 90° C.;
Immediately after each of these steps, the soaked leaves were cooled shortly in a cold tap water bath at 3° C.
The aqueous buffer solution contained 137 mM NaCl, 2.7 mM KCL, 10 mM Na2HPO4 and 2 mM KH2PO4, and was adjusted to pH 7.2 with more hydrogen phosphate or dihydrogenphosphate if required.
Finally the chlorophyll content of the leaves was quantified after storage in tissue papers at 4° C. in the dark at various moments in time. […]

[1] = soaked 1 min in buffer pH 7.2 at 70° C.
[2] = soaked 1 min in buffer pH 7.2 at 90° C.
[3] = soaked 1 min in buffer pH 7.2 at room temperature
[4] = soaked 1 min in water at 70° C.
[5] = soaked 1 min in water at 90° C.
[6] = soaked 1 min in water at room temperature

## c1coc(CNc2ncnc3[nH]cnc23)c1 [cytokinin, 6-furfurylaminopurine]
[1]
  reduction after 27 d (chlorophyll): 11%
  chlorophyll level after 0 d storage: 18 micromole per gram fresh weight
  chlorophyll level after 3 d storage: 17.5 micromole per gram fresh weight
  chlorophyll level after 7 d storage: 17.2 micromole per gram fresh weight
  chlorophyll level after 10 d storage: 17 micromole per gram fresh weight
  chlorophyll level after 14 d storage: 17 micromole per gram fresh weight
  chlorophyll level after 20 d storage: 16.8 micromole per gram fresh weight
  chlorophyll level after 27 d storage: 16 micromole per gram fresh weight
[2]
  chlorophyll level after 0 d storage: 18 micromole per gram fresh weight
  chlorophyll level after 3 d storage: 17.5 micromole per gram fresh weight
  chlorophyll level after 7 d storage: 17 micromole per gram fresh weight
  chlorophyll level after 10 d storage: 16.5 micromole per gram fresh weight
  chlorophyll level after 14 d storage: 16 micromole per gram fresh weight
  chlorophyll level after 20 d storage: 15.5 micromole per gram fresh weight
  chlorophyll level after 27 d storage: 15 micromole per gram fresh weight
[3]
  reduction after 27 d (chlorophyll): 17%
  chlorophyll level after 0 d storage: 18.5 micromole per gram fresh weight
  chlorophyll level after 3 d storage: 17.5 micromole per gram fresh weight
  chlorophyll level after 7 d storage: 16.5 micromole per gram fresh weight
  chlorophyll level after 10 d storage: 15.5 micromole per gram fresh weight
  chlorophyll level after 14 d storage: 16 micromole per gram fresh weight
  chlorophyll level after 20 d storage: 15.5 micromole per gram fresh weight
  chlorophyll level after 27 d storage: 15 micromole per gram fresh weight
[4]
  chlorophyll level after 0 d storage: 17.5 micromole per gram fresh weight
  chlorophyll level after 3 d storage: 17 micromole per gram fresh weight
  chlorophyll level after 7 d storage: 16.5 micromole per gram fresh weight
  chlorophyll level after 10 d storage: 16.5 micromole per gram fresh weight
  chlorophyll level after 14 d storage: 16 micromole per gram fresh weight
  chlorophyll level after 20 d storage: 16 micromole per gram fresh weight
  chlorophyll level after 27 d storage: 15.5 micromole per gram fresh weight
[5]
  reduction after 27 d (chlorophyll): 50%
  chlorophyll level after 0 d storage: 15 micromole per gram fresh weight
  chlorophyll level after 3 d storage: 13.5 micromole per gram fresh weight
  chlorophyll level after 7 d storage: 12.5 micromole per gram fresh weight
  chlorophyll level after 10 d storage: 11 micromole per gram fresh weight
  chlorophyll level after 14 d storage: 9.8 micromole per gram fresh weight
  chlorophyll level after 20 d storage: 8.8 micromole per gram fresh weight
  chlorophyll level after 27 d storage: 7.5 micromole per gram fresh weight
[6]
  reduction after 27 d (chlorophyll): 9%
  chlorophyll level after 0 d storage: 18 micromole per gram fresh weight
  chlorophyll level after 3 d storage: 17.8 micromole per gram fresh weight
  chlorophyll level after 7 d storage: 17.2 micromole per gram fresh weight
  chlorophyll level after 10 d storage: 16.5 micromole per gram fresh weight
  chlorophyll level after 14 d storage: 16.2 micromole per gram fresh weight
  chlorophyll level after 20 d storage: 16 micromole per gram fresh weight
  chlorophyll level after 27 d storage: 16 micromole per gram fresh weight
